{"source": "patent US20180051309A1", "about": "“METHODS TO ASSESS MONITOR AND CONTROL BACTERIAL BIOFILMS” (ExxonMobil Research and Engineering Company, priority 2016, published 2018)", "system": "prophage regions DVU0189-DVU0221 and DVU2847-DVU2879", "experiment": "normalized gene expression (FPKM) of two prophage regions in planktonic and biofilm samples", "format": "cell-based, Desulfovibrio vulgaris", "details": "biofilm controlled via indole, FIG. 1", "description": "Overexpression of prophages is observed in biofilm samples when compared to planktonic samples."}
{"smiles": "c1ccc2[nH]ccc2c1", "note": "[indole]", "values": [{"measurement": "phage genes expression", "value": "repressed phage genes expression"}]}
